Reference: patent publication US20160130278A1 (TAISHO PHARMACEUTICAL CO., LTD, priority 2013, published 2016)

biological target: T1, human type 1 glycine transporter (GlyT1) (Homo sapiens, UniProt P48067); assay: Glycine uptake inhibition experiment ([3H]glycine uptake); type: cell-based; settings: GlyT1
T1 construct: T98G cells (glioma cells) expressing human type 1 glycine transporter (GlyT1) were used
T1 sequence (P48067 1-706): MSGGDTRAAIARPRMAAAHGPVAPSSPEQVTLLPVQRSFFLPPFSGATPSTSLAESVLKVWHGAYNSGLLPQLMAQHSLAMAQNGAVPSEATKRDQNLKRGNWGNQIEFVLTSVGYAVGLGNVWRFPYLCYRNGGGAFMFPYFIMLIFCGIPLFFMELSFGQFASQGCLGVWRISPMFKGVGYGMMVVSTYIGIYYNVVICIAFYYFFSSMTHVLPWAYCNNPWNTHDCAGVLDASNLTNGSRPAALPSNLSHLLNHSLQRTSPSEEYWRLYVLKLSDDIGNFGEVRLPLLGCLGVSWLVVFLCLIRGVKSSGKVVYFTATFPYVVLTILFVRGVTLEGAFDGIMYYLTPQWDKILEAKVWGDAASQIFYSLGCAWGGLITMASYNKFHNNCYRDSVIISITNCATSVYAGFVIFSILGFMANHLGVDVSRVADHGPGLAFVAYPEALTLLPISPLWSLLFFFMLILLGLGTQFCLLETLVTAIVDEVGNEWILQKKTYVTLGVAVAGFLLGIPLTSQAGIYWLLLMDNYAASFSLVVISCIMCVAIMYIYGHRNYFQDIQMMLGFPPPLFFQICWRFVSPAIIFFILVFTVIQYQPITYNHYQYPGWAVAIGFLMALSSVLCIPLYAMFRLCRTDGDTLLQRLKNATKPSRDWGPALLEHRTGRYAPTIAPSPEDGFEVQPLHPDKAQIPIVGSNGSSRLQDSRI
Experimental: Glycine Uptake Inhibition Experiment
A glycine uptake experiment was conducted in accordance with the method published in Neuron, 8, 927-935, 1992. In the experiment, T98G cells (glioma cells) expressing human type 1 glycine transporter (GlyT1) were used. The T98G cells were seeded in a 96-well plate at 2.0×10^4 cells/well and cultured overnight in a CO2 incubator. The test substance was dissolved in a 100% DMSO solution and then dissolved in a 10 mM HEPES buffer solution (pH 7.4) containing 150 mM sodium chloride, 1 mM calcium chloride, 5 mM potassium chloride, 1 mM magnesium chloride, 10 mM glucose and 0.2% bovine serum albumin. After removing the cell culture medium, the test substance was subjected to a 10-min pretreatment. Subsequently, the test substance and [^3H] glycine (final concentration: 250 nM) were added to the cells and reaction was performed at room temperature for 15 minutes. After the end of the reaction, the extracellular fluid was aspirated with a manifold to remove excess labeled glycine present outside the cells, and then the cells were lysed with a 0.5 M aqueous sodium hydroxide solution. The glycine content in the cells was determined by measuring the radioactivity in the cell lysate with a liquid scintillation counter. Glycine uptake in the presence of 10 μM ALX5407 was defined as non-specific uptake, and the value calculated by subtracting the amount of the non-specific uptake from the total uptake in the absence of 10 μM ALX5407 was defined as specific uptake. In addition, glycine uptake inhibitory activity (IC50 value) was calculated from an inhibition curve at the concentrations of each test substance ranging from 10^−9 to 10^−5 M. It should be noted that ALX5407 is an HCl salt of N-[(3R)-3-([1,1′-biphenyl]-4-yloxy)-3-(4-fluorophenyl)propyl]-N-methylglycine.

| IC50 | Structure (SMILES) |
| --- | --- |
| 1.2 µM | O=C(NC(c1cccc(F)c1)C1(O)CCC(F)(F)CC1)c1nccc(C(F)(F)F)c1Cl (single isomer, unassigned) [Compound 77, 3-chloro-N-[(4,4-difluoro-1-hydroxycyclohexyl)(3-fluorophenyl)methyl]-4-(trifluoromethyl)pyridine-2-carboxamide] |
| 0.089 µM | O=C(NC(c1cccc(-n2cccn2)c1)C1(O)CCCC1)c1nccc(C(F)(F)F)c1Cl (single isomer, unassigned) [Compound 82, 3-chloro-N-{(1-hydroxycyclopentyl)[3-(1H-pyrazol-1-yl)phenyl]methyl}-4-(trifluoromethyl)pyridine-2-carboxamide] |
| 3.9 µM | O=C(NC(c1cccc(-n2cccn2)c1)C1(O)CCCC1)c1nccc(C(F)(F)F)c1Cl (single isomer, unassigned) [Compound 83, 3-chloro-N-{(1-hydroxycyclopentyl)[3-(1H-pyrazol-1-yl)phenyl]methyl}-4-(trifluoromethyl)pyridine-2-carboxamide] |
| 1.1 µM | O=C(NC(c1cccc(Br)c1)C1(O)CCC(F)(F)CC1)c1nccc(C(F)(F)F)c1Cl (single isomer, unassigned) [Compound 89, N-[(3-bromophenyl)(4,4-difluoro-1-hydroxycyclohexyl)methyl]-3-chloro-4-(trifluoromethyl)pyridine-2-carboxamide] |
| 0.3 µM | O=C(NC(c1cccc(Br)c1)C1(O)CCC(F)(F)CC1)c1nccc(C(F)(F)F)c1Cl (single isomer, unassigned) [Compound 90, N-[(3-bromophenyl)(4,4-difluoro-1-hydroxycyclohexyl)methyl]-3-chloro-4-(trifluoromethyl)pyridine-2-carboxamide] |
| 3.8 µM | CCn1cc(-c2cccc(C(NC(=O)c3nccc(C(F)(F)F)c3Cl)C3(O)CCC(F)(F)CC3)c2)cn1 (single isomer, unassigned) [Compound 91, 3-chloro-N-{(4,4-difluoro-1-hydroxycyclohexyl)[3-(1-ethyl-1H-pyrazol-4-yl)phenyl]methyl}-4-(trifluoromethyl)pyridine-2-carboxamide] |
| 0.027 µM | CCn1cc(-c2cccc(C(NC(=O)c3nccc(C(F)(F)F)c3Cl)C3(O)CCC(F)(F)CC3)c2)cn1 (single isomer, unassigned) [Compound 92, 3-chloro-N-{(4,4-difluoro-1-hydroxycyclohexyl)[3-(1-ethyl-1H-pyrazol-4-yl)phenyl]methyl}-4-(trifluoromethyl)pyridine-2-carboxamide] |
| 0.11 µM | O=C(NC(c1cc(F)cc(Cl)c1)C1(O)CCCC1)c1nccc(C(F)(F)F)c1Cl (single isomer, unassigned) [Compound 94, 3-chloro-N-[(3-chloro-5-fluorophenyl)(1-hydroxycyclopentyl)methyl]-4-(trifluoromethyl)pyridine-2-carboxamide] |
| 0.27 µM | O=C(NC(c1ccc(F)c(Cl)c1)C1(O)CCCC1)c1nccc(C(F)(F)F)c1Cl (single isomer, unassigned) [Compound 97, 3-chloro-N-[(3-chloro-4-fluorophenyl)(1-hydroxycyclopentyl)methyl]-4-(trifluoromethyl)pyridine-2-carboxamide] |
| 5.2 µM | O=C(NC(c1ccc(F)cc1Cl)C1(O)CCCC1)c1nccc(C(F)(F)F)c1Cl (single isomer, unassigned) [Compound 99, 3-chloro-N-[(2-chloro-4-fluorophenyl)(1-hydroxycyclopentyl)methyl]-4-(trifluoromethyl)pyridine-2-carboxamide] |
| 0.059 µM | O=C(NC(c1ccc(F)cc1Cl)C1(O)CCCC1)c1nccc(C(F)(F)F)c1Cl (single isomer, unassigned) [Compound 100, 3-chloro-N-[(2-chloro-4-fluorophenyl)(1-hydroxycyclopentyl)methyl]-4-(trifluoromethyl)pyridine-2-carboxamide] |
| 1.7 µM | O=C(NC(c1cc(Cl)ccc1Cl)C1(O)CCCC1)c1nccc(C(F)(F)F)c1Cl (single isomer, unassigned) [Compound 113, 3-chloro-N-[(2,5-dichlorophenyl)(1-hydroxycyclopentyl)methyl]-4-(trifluoromethyl)pyridine-2-carboxamide] |
| 0.065 µM | O=C(NC(c1cc(Cl)ccc1Cl)C1(O)CCCC1)c1nccc(C(F)(F)F)c1Cl (single isomer, unassigned) [Compound 114, 3-chloro-N-[(2,5-dichlorophenyl)(1-hydroxycyclopentyl)methyl]-4-(trifluoromethyl)pyridine-2-carboxamide] |
| 0.059 µM | O=C(NC(c1cc(Cl)cc(Cl)c1)C1(O)CCCC1)c1nccc(C(F)(F)F)c1Cl (single isomer, unassigned) [Compound 115, 3-chloro-N-[(3,5-dichlorophenyl)(1-hydroxycyclopentyl)methyl]-4-(trifluoromethyl)pyridine-2-carboxamide] |
| 6 µM | O=C(NC(c1cccc(Cl)c1Cl)C1(O)CCCC1)c1nccc(C(F)(F)F)c1Cl (single isomer, unassigned) [Compound 116, 3-chloro-N-[(2,3-dichlorophenyl)(1-hydroxycyclopentyl)methyl]-4-(trifluoromethyl)pyridine-2-carboxamide] |
| 0.029 µM | O=C(NC(c1cccc(Cl)c1Cl)C1(O)CCCC1)c1nccc(C(F)(F)F)c1Cl (single isomer, unassigned) [Compound 117, 3-chloro-N-[(2,3-dichlorophenyl)(1-hydroxycyclopentyl)methyl]-4-(trifluoromethyl)pyridine-2-carboxamide] |
| 7.4 µM | CCn1cc(-c2cccc(C(NC(=O)c3cccc(C(F)(F)F)c3Cl)C3(O)CCC(F)(F)CC3)c2)cn1 (single isomer, unassigned) [Compound 121, 2-chloro-N-{(4,4-difluoro-1-hydroxycyclohexyl)[3-(1-ethyl-1H-pyrazol-4-yl)phenyl]methyl}-3-(trifluoromethyl)benzamide] |
| 0.22 µM | CCn1cc(-c2cccc(C(NC(=O)c3cccc(C(F)(F)F)c3Cl)C3(O)CCC(F)(F)CC3)c2)cn1 (single isomer, unassigned) [Compound 122, 2-chloro-N-{(4,4-difluoro-1-hydroxycyclohexyl)[3-(1-ethyl-1H-pyrazol-4-yl)phenyl]methyl}-3-(trifluoromethyl)benzamide] |
| 3.5 µM | CC(C)n1cc(-c2cccc(C(NC(=O)c3nccc(C(F)(F)F)c3Cl)C3(O)CCC(F)(F)CC3)c2)cn1 (single isomer, unassigned) [Compound 133, 3-chloro-N-[(4,4-difluoro-1-hydroxycyclohexyl){3-[1-(propan-2-yl)-1H-pyrazol-4-yl]phenyl}methyl]-4-(trifluoromethyl)pyridine-2-carboxamide] |
| 0.031 µM | CC(C)n1cc(-c2cccc(C(NC(=O)c3nccc(C(F)(F)F)c3Cl)C3(O)CCC(F)(F)CC3)c2)cn1 (single isomer, unassigned) [Compound 134, 3-chloro-N-[(4,4-difluoro-1-hydroxycyclohexyl){3-[1-(propan-2-yl)-1H-pyrazol-4-yl]phenyl}methyl]-4-(trifluoromethyl)pyridine-2-carboxamide] |
| 0.072 µM | O=C(NC(c1cccc(-c2cnn(CC(F)(F)F)c2)c1)C1(O)CCC(F)(F)CC1)c1nccc(C(F)(F)F)c1Cl (single isomer, unassigned) [Compound 135, 3-chloro-N-[(4,4-difluoro-1-hydroxycyclohexyl){3-[1-(2,2,2-trifluoroethyl)-1H-pyrazol-4-yl]phenyl}methyl]-4-(trifluoromethyl)pyridine-2-carboxamide] |
| 3.7 µM | O=C(NC(c1cccc(Cl)c1Cl)C1(O)CCC(F)(F)CC1)c1nccc(C(F)(F)F)c1Cl (single isomer, unassigned) [Compound 136, 3-chloro-N-[(2,3-dichlorophenyl)(4,4-difluoro-1-hydroxycyclohexyl)methyl]-4-(trifluoromethyl)pyridine-2-carboxamide] |
